Experiment [1] has as its target T1, androgen receptor LBD (Panvera) (Rattus norvegicus, UniProt P15207).
T1 construct: 5 pmol androgen receptor LBD (Panvera); purchased Panvera
T1 sequence (P15207 651-882 limits assumed): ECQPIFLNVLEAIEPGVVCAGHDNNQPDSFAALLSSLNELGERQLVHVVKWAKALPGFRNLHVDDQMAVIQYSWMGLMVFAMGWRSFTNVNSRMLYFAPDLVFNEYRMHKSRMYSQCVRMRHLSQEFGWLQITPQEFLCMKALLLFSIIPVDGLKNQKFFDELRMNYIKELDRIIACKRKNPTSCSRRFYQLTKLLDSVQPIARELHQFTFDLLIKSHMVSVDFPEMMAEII
The experiment is described as follows: Androgen Receptor Filtration Binding Assay (PANVERA). To be noted: [3H] R1881 tracer. On the procedure:
The assay was run on a 96 well plate with each well filled with a total reaction volume 150 μL, of a solution containing 5 pmol androgen receptor LBD (Panvera) or 30 μL of freshly prepared rat cytosol, 0.5 nM [^3H] […] (TED buffer contains 10 mM Tris.HCl pH 7.4, 1 mM sodium molybdate, 1.5 mM EDTA, 1 mM DTT and 10% (v/v) glycerol.)
On day one, the solution containing receptor, tracer and TED buffer was distributed into a 96 well plate. Diluted test compound or control vehicle was then added to individual wells and the plate incubated at 4° C. overnight.
On day two, to each well was then added 20 μL human γ-globulin (ICN 823102), prepared at 25 mg/ml in TE pH 8.0, and 55 μL 40% polyethylene glycol 8000 (JT Baker U222-08), prepared in TE pH 8.0. The plate was incubated at 4° C. for 60 minutes. During incubation, the harvester was rinsed with 10% PEG 8000, prepared in TE pH 8.0, and a GF/C Unifilter-96 was pre-wet with 10% PEG. The binding reaction was filtered, the retentate was washed three times with 10% PEG and dried under vacuum for a couple of minutes, then dried at 50° C. for 5 min and the plate was bottom sealed. Next, 25 μL of Microscint-20 (Packard) was added to the filter wells and the plate was top sealed. The plate wells were then counted on a TopCount (Packard).
Counts per well were measured and IC50s determined by linear regression.

In another experiment the target is T2, androgen receptor (Rattus norvegicus, UniProt P15207).
T2 sequence (P15207 1-902): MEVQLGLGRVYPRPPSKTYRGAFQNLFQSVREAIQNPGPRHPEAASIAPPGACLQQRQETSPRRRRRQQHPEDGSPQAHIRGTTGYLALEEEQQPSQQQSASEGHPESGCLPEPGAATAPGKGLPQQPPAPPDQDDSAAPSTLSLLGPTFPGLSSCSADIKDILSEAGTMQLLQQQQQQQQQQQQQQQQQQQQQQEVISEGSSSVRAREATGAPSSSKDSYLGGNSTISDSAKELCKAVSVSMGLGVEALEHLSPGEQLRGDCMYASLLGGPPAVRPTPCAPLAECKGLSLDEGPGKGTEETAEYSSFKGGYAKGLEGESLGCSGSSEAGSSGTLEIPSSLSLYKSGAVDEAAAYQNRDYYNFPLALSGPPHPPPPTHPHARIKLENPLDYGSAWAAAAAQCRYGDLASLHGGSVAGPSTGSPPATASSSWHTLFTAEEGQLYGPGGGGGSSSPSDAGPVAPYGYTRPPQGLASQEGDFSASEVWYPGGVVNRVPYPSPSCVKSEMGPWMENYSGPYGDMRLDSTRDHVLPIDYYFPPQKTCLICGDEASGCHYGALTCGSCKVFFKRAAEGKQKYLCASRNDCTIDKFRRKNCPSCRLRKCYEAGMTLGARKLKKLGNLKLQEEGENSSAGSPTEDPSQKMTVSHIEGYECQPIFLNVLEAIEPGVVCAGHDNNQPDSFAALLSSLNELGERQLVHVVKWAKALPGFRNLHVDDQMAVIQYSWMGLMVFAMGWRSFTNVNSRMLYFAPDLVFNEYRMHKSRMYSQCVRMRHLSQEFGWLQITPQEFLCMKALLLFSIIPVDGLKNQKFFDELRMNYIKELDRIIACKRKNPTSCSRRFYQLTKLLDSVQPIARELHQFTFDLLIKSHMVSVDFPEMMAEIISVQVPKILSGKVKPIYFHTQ
The experiment is described as follows: Androgen Receptor Binding Using Rat Ventral Prostate Cytosol. To be noted: Rat Cytosol; Concentration 1000 nM. The arrangement: from tissue; host or cells: ventral prostate cytosol of castrated male Sprague Dawley or Wistar rats. On the procedure:
Rat Prostate Cytosol Preparation:
Male Sprague Dawley or Wistar rats (Charles River, 200-300 g) were used for each preparation. The day before preparing the cytosol, the rats were castrated using standard surgical procedures.
The rats were euthanized by carbon dioxide asphyxiation. The rat prostates were quickly removed and placed on ice in pre-chilled, pre-weighed 50 mL plastic tubes. No more than five prostates were placed into one tube. The tubes were then weighed and the prostate tissue wet weights calculated.
To the chilled prostate tissue was then added […] of chilled homogenization buffer. The homogenization buffer was freshly prepared by mixing 10 mM Tris.HCl, pH 7.4, 1 mM sodium molybdate, 1.5 mM EDTA, 1 mM dithiothreitol, 10% (v/v) glycerol and 1% protease inhibitor cocktail (Sigma P 8340).
The prostate tissue was homogenized in a cold room using a pre-chilled Polytron PT3000 homogenizer (Brinkmann). Homogenization was performed at a speed setting of 20, three times for 10 sec bursts. The tubes containing the prostate tissue was kept on ice while homogenizing. The homogenate was allowed to rest on ice for 20 sec between bursts.
The homogenate was then placed into pre-chilled 3 mL polycarbonate ultracentrifuge tubes and centrifuged in the TLA-100 rotor of a TL-100 ultracentrifuge for 12 min at 100,000 rpm at 4° C. The resulting supernatant was stored in 1 mL aliquots at −80° C. until needed.
Binding to the androgen receptor was determined according to the protocol described in Example 86 using the above prepared rat cytosol.
% Inhibition was determined by testing dilutions of the test compound (usually duplicates of 10 μM) in the binding assay. Counts per well were measured and percents of inhibition determined. […] Counts per well were measured and IC50s determined by linear regression.

pIC50: −log10 of the molar value.

A word on the pIC50: it is the negative decadic logarithm of the IC50, by convention in mol/L. By % Inhibition is commonly meant the share of the control response that was lost under treatment. Higher therefore signals strong suppression. For the compound `Cc1ccc(C(=O)OCC(C)(O)c2cc3cc([N+](=O)[O-])c(C(F)(F)F)cc3[nH]2)cc1` (racemic) [compound 69], the negative logarithm of the IC50 (pIC50) in experiment [1] is 5.92. Further, the “% Inhibition” value at androgen receptor is 31%.

The values are drawn from patent US9434688B2, “Indole derivatives as selective androgen receptor modulators (SARMS)” (Janssen Pharmaceutica, NV, priority 2004, dated 2016).
